Measurements from publication PMC6764862 (Xenobiotica; the fate of foreign compounds in biological …, 2019).
Where two headings read alike, the source gives them in different places.

What was measured:
human AhR (hAhR) = target: T1, human AhR (hAhR) (Homo sapiens, UniProt P35869); assay: AhR-dependent pXRE-SV40-Luc luciferase reporter in HepG2 cells; format: cell-based; conditions: for Relative effect potency (REP) HepG2: EC50-based, relative to TCDD, human system; for maximum response, luciferase activity: concentration-response
T1 sequence (P35869 11-848): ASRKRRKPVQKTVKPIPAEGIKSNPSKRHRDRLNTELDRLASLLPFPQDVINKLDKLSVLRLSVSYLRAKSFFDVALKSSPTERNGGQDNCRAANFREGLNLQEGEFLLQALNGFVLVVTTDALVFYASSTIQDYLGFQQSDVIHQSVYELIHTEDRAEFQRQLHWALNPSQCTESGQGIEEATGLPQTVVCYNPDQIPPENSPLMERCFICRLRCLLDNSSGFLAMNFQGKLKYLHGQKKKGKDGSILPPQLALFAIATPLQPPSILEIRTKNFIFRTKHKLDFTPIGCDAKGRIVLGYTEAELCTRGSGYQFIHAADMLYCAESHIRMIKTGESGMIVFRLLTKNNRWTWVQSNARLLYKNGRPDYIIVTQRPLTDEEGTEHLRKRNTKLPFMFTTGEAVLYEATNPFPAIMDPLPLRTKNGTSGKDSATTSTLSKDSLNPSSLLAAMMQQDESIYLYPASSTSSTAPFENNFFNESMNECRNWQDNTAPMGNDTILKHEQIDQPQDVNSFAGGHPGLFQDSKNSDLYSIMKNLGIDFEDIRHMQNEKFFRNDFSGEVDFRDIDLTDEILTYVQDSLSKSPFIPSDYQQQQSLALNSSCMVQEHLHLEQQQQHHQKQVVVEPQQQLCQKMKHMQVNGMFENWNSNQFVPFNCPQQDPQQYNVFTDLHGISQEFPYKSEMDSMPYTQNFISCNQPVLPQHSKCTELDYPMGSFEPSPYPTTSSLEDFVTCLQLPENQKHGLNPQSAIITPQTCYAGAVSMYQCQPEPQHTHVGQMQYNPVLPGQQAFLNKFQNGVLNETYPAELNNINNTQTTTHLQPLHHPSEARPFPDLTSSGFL

mouse AhR (mAhR) [1] = target: T2, mouse AhR (mAhR) (Mus musculus, UniProt P30561); conditions: for Relative effect potency (REP) Hepa1c1c7: EC50-based, relative to TCDD, murine system; for maximum response, luciferase activity: concentration-response
T2 sequence (P30561 10-848): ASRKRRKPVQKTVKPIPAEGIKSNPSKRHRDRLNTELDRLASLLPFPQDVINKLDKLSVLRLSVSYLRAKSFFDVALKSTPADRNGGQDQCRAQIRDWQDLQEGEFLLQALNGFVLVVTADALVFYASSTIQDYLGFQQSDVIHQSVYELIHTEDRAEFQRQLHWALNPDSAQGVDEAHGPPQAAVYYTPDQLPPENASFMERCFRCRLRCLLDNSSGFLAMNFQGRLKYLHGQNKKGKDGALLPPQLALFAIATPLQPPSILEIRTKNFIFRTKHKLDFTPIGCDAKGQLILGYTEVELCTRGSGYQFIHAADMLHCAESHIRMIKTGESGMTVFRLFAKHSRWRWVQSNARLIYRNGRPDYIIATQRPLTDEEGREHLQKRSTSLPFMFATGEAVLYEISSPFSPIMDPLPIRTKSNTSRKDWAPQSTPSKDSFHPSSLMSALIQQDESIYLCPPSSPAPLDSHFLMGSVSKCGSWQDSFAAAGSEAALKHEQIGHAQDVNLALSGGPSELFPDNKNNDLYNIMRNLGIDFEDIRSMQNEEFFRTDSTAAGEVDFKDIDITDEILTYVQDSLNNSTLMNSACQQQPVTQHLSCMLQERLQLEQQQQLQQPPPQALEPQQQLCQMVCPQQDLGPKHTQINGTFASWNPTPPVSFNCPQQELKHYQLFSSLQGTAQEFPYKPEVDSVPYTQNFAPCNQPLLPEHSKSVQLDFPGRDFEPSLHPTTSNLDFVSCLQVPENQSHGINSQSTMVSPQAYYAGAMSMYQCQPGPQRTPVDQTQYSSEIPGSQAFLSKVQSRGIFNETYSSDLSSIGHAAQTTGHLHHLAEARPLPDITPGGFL

mouse AhR (mAhR) [2] = conditions: for REP ratio Hepa1c1c7/HepG2: mouse REP over human REP
CYP1A1 (AhR target gene) [3] = assay: CYP1A1 mRNA induction in primary human hepatocytes; format: cell-based; conditions: primary human hepatocytes
Cyp1a1 (AhR target gene) [4] = assay: Cyp1a1 mRNA induction in primary mouse hepatocytes; format: cell-based; conditions: primary mouse hepatocytes
EGFR = conditions: up to; highest potency of all congeners tested; ref Hardesty et al., 2018; cited from earlier work
[5] = test system: CYP1A1 mRNA (AhR target gene); assay: CYP1A1 mRNA induction in primary human hepatocytes; format: cell-based; conditions: human
[6] = test system: Cyp1a1 mRNA (AhR target gene); assay: Cyp1a1 mRNA induction in primary mouse hepatocytes; format: cell-based; conditions: male, C57BL/6, mouse
mouse AhR (mAhR) [7] = target: T2, mouse AhR (mAhR); assay: in vitro; conditions: hepa1c1c7 cells
[8] = read-out: EC50 for AhR luciferase reporter activity, HepG2 cells, 24 h treatment

Structure (SMILES) | Relative effect potency (REP) HepG2 (human AhR (hAhR)) | WHO 2005 TEF fold higher than the human REP (human AhR (hAhR); TEF vs HepG2 REP of this study) | EC50 (human AhR (hAhR); [8]) | Relative effect potency (REP) Hepa1c1c7 (mouse AhR (mAhR) [1]) | REP ratio Hepa1c1c7/HepG2 (mouse AhR (mAhR) [2]) | luciferase activity increase (human AhR (hAhR); HepG2 cells, 10 μM, 24 h, positive controls) | maximum response, luciferase activity (human AhR (hAhR); HepG2 cells) | maximal induction of CYP1A1 mRNA (CYP1A1 (AhR target gene) [3]) | EC50 (CYP1A1 (AhR target gene) [3]; read-out: EC50 for induction of CYP1A1 mRNA, 24 h) | maximal induction of Cyp1a1 mRNA (Cyp1a1 (AhR target gene) [4]) | luciferase activity increase (mouse AhR (mAhR) [1]; Hepa1c1c7 cells, 10 μM, 24 h, positive controls) | maximum response, luciferase activity (mouse AhR (mAhR) [1]; Hepa1c1c7 cells) | fold more potent (lower EC50) in Hepa1c1c7 than in HepG2, luciferase reporter (mouse AhR (mAhR) [2]; mAhR vs hAhR, cell lines) | IC50 for EGFR inhibition (EGFR) | EC50 (human AhR (hAhR)) | EC50 at 24 h [5] | EC50 at 24 h [6] | maximal fold induction at 24 h (mouse AhR (mAhR) [7]) | WHO 2005 TEF fold lower than the human REP (human AhR (hAhR); TEF vs HepG2 REP of this study) | fold higher EC50 in Hepa1c1c7 cells compared to HepG2 cells (mouse AhR (mAhR) [2]; luciferase reporter)
Clc1cc(-c2cc(Cl)c(Cl)c(Cl)c2)cc(Cl)c1Cl [PCB 169] | ≤ 0.00005 | > 300 fold | ≥ 7000 nM | 0.001 | ≥ 20 | – | – | – | – | – | – | – | – | – | – | – | – | – | – | –
Clc1ccc(-c2cc(Cl)c(Cl)c(Cl)c2Cl)cc1 [PCB 114] | ≤ 0.00007 | – | ≥ 5000 nM | 0.00004 | ≥ 0.5 | – | – | – | – | – | – | – | – | – | – | – | – | – | – | –
Clc1ccc(-c2ccc(Cl)c(Cl)c2)cc1Cl [PCB 77] | ≤ 0.00009 | – | ≥ 4000 nM | 0.0003 | ≥ 3.3 | – | – | – | – | – | – | – | – | – | – | – | – | – | – | –
Clc1ccc(-c2cc(Cl)c(Cl)c(Cl)c2)cc1Cl [PCB 126] | 0.002 | 50 fold | 250 ± 150 nM | 0.006 | 3 | 42 fold | 31.6 fold | 45.1 fold | 195 ± 35 nM | 53.3 fold | 3.7 fold | 5.9 fold | approximately 53 fold | −16.07 ± 0.31 log M | – | – | – | – | – | –
Clc1cc2c(cc1Cl)Oc1cc(Cl)c(Cl)cc1O2 [TCDD, 2,3,7,8-tetrachlorodibenzo-p-dioxin, reference compound] | 1 | – | – | – | 1 | – | 83 fold | – | – | – | – | – | – | – | 0.4 ± 0.1 nM | 0.45 ± 0.34 nM | 0.04 ± 0.02 nM | 2.2 | – | –
Clc1ccc(-c2cc(Cl)c(Cl)c(Cl)c2)cc1 [PCB 81] | 0.06 | – | 6.8 ± 2.7 nM | 0.0009 | 0.015 | – | 34.6 fold | – | – | – | – | 2.3 fold | – | – | – | – | – | – | 200 fold | approximately 5 fold
